According to article PMC9837035 (Nature Communications, 2023):
Where “and” joins values, the source holds several entries; their conditions need not be identical. Identical values can stand only once. Like-named read-outs stand apart in the source and are kept apart here.

Columns and labels:
[1] = tested on: BCL11A occupancy at the β-globin locus; assay: ChIP-qPCR with antibody against BCL11A in HUDEP-2 cells; format: cell-based, human; set-up: ChIP-qPCR, antibody against BCL11A: scale not given here; conditions: for occupancies of BCL11A in the BGLT3 gene region: HUDEP-2, 4 days
Protocol: A total of 0.5–1 × 10^6 cells were cross-linked with 1% formaldehyde for 10 min at room temperature and the reaction was quenched with 250 mM glycine. Cross-linked cells were then lysed with buffer 1 (15 mM Tris-HCl (pH 7.5), 60 mM KCl, 15 mM NaCl, 5 mM MgCl2, 0.1 mM EGTA, 300 mM sucrose, […], 1 mM phenylmethanesulfonyl fluoride (PMSF), 0.5% NP40) and incubated on ice for 10 min. After centrifugation, the pellet was re-suspended in buffer 2 (15 mM Tris-HCl (pH 7.5), 60 mM KCl, 15 mM NaCl, 5 mM MgCl2, 0.1 mM EGTA, 1.2 M sucrose, […], 1 mM PMSF). After centrifugation, the pellet was then re-suspended in MNase buffer (50 mM Tris-HCl (pH 7.5), 1 mM CaCl2, 4 mM MgCl2, 320 mM sucrose, 1 mM PMSF) and digested with 100 U of micrococcal nuclease (Takara) at 37 °C for 15 min. After the reaction was quenched with 20 mM EDTA, the supernatants were incubated with antibodies (anti-H3K9me2 (1:100), Abcam, ab1220; anti-H3K9ac (1:100), Active Motif, 39917; Goat anti-IgG (H + L) (1:100), Jackson Immunoresearch; anti-BCL11A (1:100), Novus Biologicals, NB600-261; anti-ZBTB7A (1:100), Thermo Fisher Scientific, eBioscience (13E9); anti-CHD3 (1:100), Novus Biologicals, NB-100-60412; anti-CHD4 (1:100), abcam, ab240640) and Protein A/G PLUS-Agarose (Santa Cruz Biotechnology) overnight at 4 °C. Beads were washed sequentially once with the following buffers: wash buffer A (50 mM Tris-HCl (pH 7.5), 75 mM NaCl, 10 mM EDTA, 0.01% NP40), wash buffer B (50 mM Tris-HCl (pH 7.5), 100 mM NaCl, 10 mM EDTA, 0.01% NP40), wash buffer C (50 mM Tris-HCl (pH 7.5), 175 mM NaCl, 10 mM EDTA, 0.01% NP40). After treatment with proteinase K in buffer 4 (20 mM Tris-HCl (pH 8.0), 10 mM EDTA, 400 mM NaCl, 0.5% SDS) at 56 °C overnight, DNA was purified using the FastGene Gel/PCR Extraction Kit (Nippon Genetics). The samples were analyzed by qPCR. Primers are listed in Supplementary Table 10. ChIP-seq experiments were performed by GENEWIZ. Tracks were visualized using the integrative genome viewer. ChIP-seq analysis were analyzed Cutadapt (V1.9.1) for QC, FastQC (V0.10.1) for QC assessment, Bowtie (V2.1.0) for mapping, strand cross-correlation (SCC) for ChIP quality assessment, MACS2 for peak calling, and R package ChIPpeakAnno for Peak annotated.

[2] = tested on: BGLT3-knockdown HUDEP-2 cells; assay: RT-qPCR of BGLT3, β- and γ-globin in BGLT3-knockdown HUDEP-2 cells; format: cell-based, human; conditions: for induction of γ-globin in BGLT3-knockdown cell lines: HUDEP-2; for BGLT3 expression / β-globin expression / γ-globin expression: shctrl DMSO = 1, 3 replicates
Protocol: Total cellular RNA was prepared using the Tissue Total RNA Mini Kit (FAVORGEN), and cDNA was synthesized using ReverTra Ace Master Mix (TOYOBO). Expression of target genes was analyzed using THUNDERBIRD SYBR qPCR Mix (TOYOBO) on a CFX Connect Real Time System (Bio-Rad). The qPCR data were acquired on CFX Maestro (Bio-Rad). Primers are listed in Supplementary Table 10. GAPDH was used as a reference. Primers were purchased from INTEGRATED DNA TECHNOLOGIES or FASMAC.
Retroviral infection was used as previously described to establish cell lines stably expressing BGLT3 and transfected with the pCX4-pur vector, as well as knockdown cell lines transfected with the pSUPER vector[58]. Briefly, retroviruses were produced by transfecting PLAT-E cells with pCX4-pur-BGLT3 or pSUPER-ctrl, pSUPER-BGLT3, or pSUPER-G9a using 5 μg/mL polyethylenimine MAX (PEI MAX, Polysciences). Two days after transfection, the culture supernatant was collected and filtered through a 0.45-μm filter (Millipore) and used for infection with 8 μg/mL polybrene (Sigma). Forty-eight hours after infection, the infected cells were selected with 0.2 μg/mL puromycin (InvivoGen). The clonal puromycin-resistant cells were established via limiting dilution. The desired clones were confirmed by western blotting or qPCR.

EZH2 (Y641F) = EZH2 (Y641F) (Homo sapiens, UniProt Q15910, Y641F); assay: biochemical
Chain of EZH2 (Y641F) (Q15910 whole entry Y641F): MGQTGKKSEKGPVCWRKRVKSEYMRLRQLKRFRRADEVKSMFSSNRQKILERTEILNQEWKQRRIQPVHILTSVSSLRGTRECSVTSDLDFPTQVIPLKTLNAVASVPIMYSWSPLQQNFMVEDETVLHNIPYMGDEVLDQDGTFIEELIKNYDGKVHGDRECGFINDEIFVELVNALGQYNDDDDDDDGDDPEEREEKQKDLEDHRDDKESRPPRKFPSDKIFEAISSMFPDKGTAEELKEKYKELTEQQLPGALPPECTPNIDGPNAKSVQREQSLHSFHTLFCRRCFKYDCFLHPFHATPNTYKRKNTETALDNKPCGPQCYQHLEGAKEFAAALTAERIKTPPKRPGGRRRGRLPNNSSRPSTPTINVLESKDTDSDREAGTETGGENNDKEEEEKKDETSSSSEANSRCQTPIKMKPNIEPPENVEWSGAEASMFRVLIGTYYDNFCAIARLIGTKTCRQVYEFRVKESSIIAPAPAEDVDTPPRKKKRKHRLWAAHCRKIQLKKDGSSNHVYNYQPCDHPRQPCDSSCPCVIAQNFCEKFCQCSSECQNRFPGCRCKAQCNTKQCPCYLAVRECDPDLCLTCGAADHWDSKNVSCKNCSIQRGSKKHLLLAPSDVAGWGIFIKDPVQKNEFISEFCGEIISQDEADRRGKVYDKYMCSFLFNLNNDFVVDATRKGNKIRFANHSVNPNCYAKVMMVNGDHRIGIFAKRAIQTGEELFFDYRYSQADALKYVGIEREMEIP
Chain of EZH2 (Y641F) (O75530 whole entry partner): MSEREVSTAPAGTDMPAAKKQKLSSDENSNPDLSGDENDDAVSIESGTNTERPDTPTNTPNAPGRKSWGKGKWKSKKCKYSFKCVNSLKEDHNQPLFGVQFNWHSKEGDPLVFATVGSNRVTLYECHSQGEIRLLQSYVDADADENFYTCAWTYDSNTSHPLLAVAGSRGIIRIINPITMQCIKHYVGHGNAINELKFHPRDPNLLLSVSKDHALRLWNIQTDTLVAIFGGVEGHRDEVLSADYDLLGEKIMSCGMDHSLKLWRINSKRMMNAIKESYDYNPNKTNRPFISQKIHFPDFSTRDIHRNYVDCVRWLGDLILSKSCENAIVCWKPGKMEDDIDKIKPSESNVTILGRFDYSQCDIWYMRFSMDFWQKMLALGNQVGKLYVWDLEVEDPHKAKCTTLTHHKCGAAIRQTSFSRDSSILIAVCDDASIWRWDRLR
Chain of EZH2 (Y641F) (Q15022 whole entry partner): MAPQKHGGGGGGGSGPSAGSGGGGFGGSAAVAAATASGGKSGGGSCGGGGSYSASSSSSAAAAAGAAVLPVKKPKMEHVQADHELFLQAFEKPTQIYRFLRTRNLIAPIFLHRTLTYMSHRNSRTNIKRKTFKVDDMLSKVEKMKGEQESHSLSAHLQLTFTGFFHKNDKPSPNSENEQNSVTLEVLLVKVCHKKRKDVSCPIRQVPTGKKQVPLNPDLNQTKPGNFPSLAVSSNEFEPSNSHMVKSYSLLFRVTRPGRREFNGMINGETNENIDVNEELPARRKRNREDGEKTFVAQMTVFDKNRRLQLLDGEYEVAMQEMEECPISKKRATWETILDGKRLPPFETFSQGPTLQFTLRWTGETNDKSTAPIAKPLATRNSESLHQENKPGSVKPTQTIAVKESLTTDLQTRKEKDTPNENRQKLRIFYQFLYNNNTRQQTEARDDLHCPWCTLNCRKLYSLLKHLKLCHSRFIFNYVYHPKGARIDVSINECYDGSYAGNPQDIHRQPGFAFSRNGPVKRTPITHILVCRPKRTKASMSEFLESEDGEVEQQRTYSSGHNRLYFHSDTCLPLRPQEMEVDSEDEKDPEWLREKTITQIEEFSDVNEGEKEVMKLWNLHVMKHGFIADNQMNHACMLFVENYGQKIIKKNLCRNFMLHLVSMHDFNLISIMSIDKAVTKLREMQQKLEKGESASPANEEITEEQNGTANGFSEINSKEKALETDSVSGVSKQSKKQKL
Chain of EZH2 (Y641F) (Q09028 whole entry partner): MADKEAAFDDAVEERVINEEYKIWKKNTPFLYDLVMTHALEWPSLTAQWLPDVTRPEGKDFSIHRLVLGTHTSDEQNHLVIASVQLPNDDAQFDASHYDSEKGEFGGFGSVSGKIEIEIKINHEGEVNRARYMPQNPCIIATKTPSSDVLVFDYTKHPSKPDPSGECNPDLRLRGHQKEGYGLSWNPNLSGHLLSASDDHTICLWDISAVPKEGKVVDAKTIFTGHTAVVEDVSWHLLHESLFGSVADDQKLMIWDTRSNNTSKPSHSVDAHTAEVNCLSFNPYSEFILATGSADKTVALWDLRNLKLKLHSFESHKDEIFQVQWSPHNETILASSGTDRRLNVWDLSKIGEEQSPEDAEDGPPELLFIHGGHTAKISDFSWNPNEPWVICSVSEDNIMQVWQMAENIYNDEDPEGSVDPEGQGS
Chain of EZH2 (Y641F) (Q6ZN18 whole entry partner): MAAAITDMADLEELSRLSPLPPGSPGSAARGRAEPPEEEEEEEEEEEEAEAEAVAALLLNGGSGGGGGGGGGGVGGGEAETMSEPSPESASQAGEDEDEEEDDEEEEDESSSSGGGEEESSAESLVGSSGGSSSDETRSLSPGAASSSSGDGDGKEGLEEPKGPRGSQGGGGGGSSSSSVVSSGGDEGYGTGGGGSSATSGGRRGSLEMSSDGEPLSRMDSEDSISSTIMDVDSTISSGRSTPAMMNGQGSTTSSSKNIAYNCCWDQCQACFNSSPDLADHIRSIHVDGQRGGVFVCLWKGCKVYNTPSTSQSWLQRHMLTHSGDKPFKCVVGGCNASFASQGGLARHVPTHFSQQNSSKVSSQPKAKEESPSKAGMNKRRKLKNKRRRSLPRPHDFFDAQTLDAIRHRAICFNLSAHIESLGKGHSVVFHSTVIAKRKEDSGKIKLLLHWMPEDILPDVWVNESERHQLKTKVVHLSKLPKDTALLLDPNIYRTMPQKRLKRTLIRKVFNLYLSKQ

[3] = Body weight of mice during 5-week administration; format: in vivo
Protocol: The dosing solution contained 15% DMSO, 17.5% Cremophor EL, 8.75% EtOH, 8.75% HCO-40, and 50% PBS. Blood samples were collected once a week by Retro Orbital Sampling (75 μL Calibrated Micropipette; Drummond Scientific Company) during isoflurane anesthesia. Blood RNA was extracted using NucleoSpin RNA Blood (Takara Bio Inc.). The weight of each mouse was measured every 3 or 4 days.

PRMT6 [4] = biological target: T1, PRMT6 (Homo sapiens, UniProt Q96LA8)
T1 sequence (Q96LA8 whole entry): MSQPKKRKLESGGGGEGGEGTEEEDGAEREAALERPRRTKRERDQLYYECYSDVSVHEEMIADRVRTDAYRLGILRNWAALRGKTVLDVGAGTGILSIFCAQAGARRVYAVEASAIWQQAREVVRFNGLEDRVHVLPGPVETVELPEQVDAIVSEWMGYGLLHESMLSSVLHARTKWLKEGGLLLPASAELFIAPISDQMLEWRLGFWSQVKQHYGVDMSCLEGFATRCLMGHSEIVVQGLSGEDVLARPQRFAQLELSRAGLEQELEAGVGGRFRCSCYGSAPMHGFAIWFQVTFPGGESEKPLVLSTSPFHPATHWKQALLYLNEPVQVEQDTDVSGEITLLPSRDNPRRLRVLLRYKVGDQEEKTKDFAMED

PRMT6 [5] = biological target: T1, PRMT6; assay: biochemical
[6] = shBGLT3#1 HUDEP-2 cells treated with hydroxyurea
[7] = shBGLT3#2 HUDEP-2 cells treated with hydroxyurea
[8] = shBGLT3#3 HUDEP-2 cells treated with hydroxyurea
[9] = shctrl HUDEP-2 cells treated with hydroxyurea

NC(=O)NO [Hydroxyurea, hydroxyurea]
ChIP-qPCR, antibody against BCL11A ([1]; BGLT3 locus, HUDEP-2 cells treated with hydroxyurea, replicates 1a-3b): 0.8842 and 1.017 and 0.83 and 0.5175 and 0.6913 and 0.7867
ChIP-qPCR, antibody against BCL11A ([1]; HS1, HUDEP-2 cells treated with hydroxyurea, replicates 1a-3b): 1.064 and 0.5507 and 0.5814 and 1.256 and 1.601 and 1.4807
ChIP-qPCR, antibody against BCL11A ([1]; HS2, HUDEP-2 cells treated with hydroxyurea, replicates 1a-3b): 0.08682 and 2.447 and 1.693 and 2.52 and 0.949 and 0.09517
ChIP-qPCR, antibody against BCL11A ([1]; HS3, HUDEP-2 cells treated with hydroxyurea, replicates 1a-3b): 1.655 and 3.8122 and 0.8818 and 0.7067 and 0.6435 and 2.151
ChIP-qPCR, antibody against BCL11A ([1]; HS4, HUDEP-2 cells treated with hydroxyurea, replicates 1a-3b): 0.8173 and 1.536 and 0.3618 and 0.975 and 1.091 and 0.6403
occupancies of BCL11A in the BGLT3 gene region [1]: decreased
ChIP-qPCR, antibody against BCL11A ([1]; β-globin promoter, HUDEP-2 cells treated with hydroxyurea, replicates 1a-3b): 0.5672 and 1.0178 and 0.4614 and 1.054 and 0.8774 and 0.8041
ChIP-qPCR, antibody against BCL11A ([1]; γ-globin promoter, HUDEP-2 cells treated with hydroxyurea, replicates 1a-3b): 0.6219 and 0.3788 and 0.8175 and 0.7872 and 0.7026 and 0.3349
ChIP-qPCR, antibody against BCL11A ([1]; δ-globin promoter, HUDEP-2 cells treated with hydroxyurea, replicates 1a-3b): 0.5737 and 0.8872 and 0.4941 and 0.547 and 0.6567 and 0.5438
induction of γ-globin in BGLT3-knockdown cell lines [2]: significantly suppressed by BGLT3 knockdown
BGLT3 expression [2, 6]: 0.1509 and 0.1371 and 0.1512
β-globin expression [2, 6]: 1.466 and 1.446 and 1.721
γ-globin expression [2, 6]: 0.1913 and 0.1897 and 0.2071
BGLT3 expression [2, 7]: 0.4826 and 0.5314 and 0.5646
β-globin expression [2, 7]: 1.233 and 1.155 and 1.519
γ-globin expression [2, 7]: 0.3698 and 0.274 and 0.2235
BGLT3 expression [2, 8]: 0.2947 and 0.3306 and 0.3028
β-globin expression [2, 8]: 1.946 and 1.495 and 2.515
γ-globin expression [2, 8]: 0.4324 and 0.5055 and 0.5513
BGLT3 expression [2, 9]: 2.21 and 1.619 and 1.809
β-globin expression [2, 9]: 1.158 and 0.7746 and 0.9701
γ-globin expression [2, 9]: 2.343 and 1.97 and 1.753

Cc1c(C(=O)NC(CCC2CC2)C(=O)Nc2ccc(C#N)cc2)[nH]c2c1C(=O)CC(C)(C)C2 (centres unmarked) [RK-701]
IC50 (EZH2 (Y641F)): > 100 µM
ChIP-qPCR, antibody against BCL11A ([1]; BGLT3 locus, HUDEP-2 cells treated with RK-701, replicates): 0.6314 and 0.7848 and 0.4856 and 0.8245 and 0.6776 and 0.5891
ChIP-qPCR, antibody against BCL11A ([1]; HS1, HUDEP-2 cells treated with RK-701, replicates): 0.3627 and 0.3768 and 0.661 and 0.2587 and 0.1661 and 0.2446
ChIP-qPCR, antibody against BCL11A ([1]; HS2, HUDEP-2 cells treated with RK-701, replicates): 0.4595 and 0.8137 and 0.6566 and 1.335 and 1.936 and 0.6063 and 1.138 and 0.7851
ChIP-qPCR, antibody against BCL11A ([1]; HS3, HUDEP-2 cells treated with RK-701, replicates): 0.4555 and 0.6595 and 0.2297 and 0.7103 and 0.2788 and 0.5275
ChIP-qPCR, antibody against BCL11A ([1]; HS4, HUDEP-2 cells treated with RK-701, replicates): 0.3987 and 0.3554 and 0.6174 and 0.2389
occupancies of BCL11A in the BGLT3 gene region [1]: significantly suppressed
ChIP-qPCR, antibody against BCL11A ([1]; β-globin promoter, HUDEP-2 cells treated with RK-701, replicates): 0.04573 and 0.1654 and 0.1051 and 0.1187 and 0.1597 and 0.09847 and 0.07533
ChIP-qPCR, antibody against BCL11A ([1]; γ-globin promoter, HUDEP-2 cells treated with RK-701, replicates): 0.1313 and 0.1159 and 0.3396 and 0.07171 and 0.121 and 0.0314
ChIP-qPCR, antibody against BCL11A ([1]; δ-globin promoter, HUDEP-2 cells treated with RK-701, replicates): 0.018 and 0.05206 and 0.04359 and 0.0353 and 0.01403 and 0.04746
induction of γ-globin in BGLT3-knockdown cell lines [2]: almost completely abolished
body weight of individual mice ([3]; 20 mg/kg i.p., Day 0): 17.8 g and 17.5 g and 16.8 g and 16.2 g and 16.4 g
body weight of individual mice ([3]; 20 mg/kg i.p., Day 4): 18.5 g and 17.7 g and 17.3 g and 17.2 g and 16.8 g and 17.4 g
body weight of individual mice ([3]; 20 mg/kg i.p., Day 8): 18.4 g and 18.1 g and 17.4 g and 17.7 g and 16.7 g and 17.8 g
body weight of individual mice ([3]; 20 mg/kg i.p., Day 11): 18.6 g and 18.2 g and 17.5 g and 17.6 g and 16.5 g and 17.1 g
body weight of individual mice ([3]; 20 mg/kg i.p., Day 15): 18.7 g and 18.1 g and 17.7 g and 18.2 g and 16.6 g
body weight of individual mice ([3]; 20 mg/kg i.p., Day 18): 19.3 g and 18.2 g and 17.8 g and 16.6 g
body weight of individual mice ([3]; 20 mg/kg i.p., Day 22): 18 g and 19 g and 18.5 g and 17 g and 18.6 g
body weight of individual mice ([3]; 20 mg/kg i.p., Day 25): 20.2 g and 19.5 g and 17.7 g and 18.3 g and 17.8 g and 18.8 g
body weight of individual mice ([3]; 20 mg/kg i.p., Day 29): 20.4 g and 18.2 g and 19.8 g and 18.7 g and 16 g and 18.5 g
body weight of individual mice ([3]; 20 mg/kg i.p., Day 32): 19.9 g and 20 g and 19 g and 19.7 g and 19.6 g
body weight of individual mice ([3]; 50 mg/kg i.p., Day 0): 14.7 g and 16.5 g and 17.3 g and 16.4 g and 17.4 g
body weight of individual mice ([3]; 50 mg/kg i.p., Day 4): 15.3 g and 18.3 g and 17.7 g and 17.3 g and 17.8 g
body weight of individual mice ([3]; 50 mg/kg i.p., Day 8): 14.8 g and 17.7 g and 18.3 g and 18.1 g
body weight of individual mice ([3]; 50 mg/kg i.p., Day 11): 16 g and 18 g and 18.7 g and 17.9 g and 18.5 g
body weight of individual mice ([3]; 50 mg/kg i.p., Day 15): 15 g and 18 g and 19.1 g and 17.9 g and 18.5 g
body weight of individual mice ([3]; 50 mg/kg i.p., Day 18): 15.1 g and 18.4 g and 19.3 g and 19.5 g
body weight of individual mice ([3]; 50 mg/kg i.p., Day 22): 15.5 g and 18.9 g and 19.7 g and 19.8 g
body weight of individual mice ([3]; 50 mg/kg i.p., Day 25): 16.7 g and 19.1 g and 20.6 g and 19.9 g and 20.4 g
body weight of individual mice ([3]; 50 mg/kg i.p., Day 29): 16.3 g and 18.4 g and 19.6 g and 19 g and 20 g
body weight of individual mice ([3]; 50 mg/kg i.p., Day 32): 16.7 g and 19.5 g and 21.2 g and 20 g
mouse body weights ([3]; five-week continuous administration): no effect on mouse body weights
IC50 (PRMT6 [4]): > 100 µM

Nc1ncnc2c1ncn2[C@@H]1O[C@H](CSCC[C@H](N)C(=O)O)[C@@H](O)[C@H]1O [SAH, S-(5'-Adenosyl)-L-homocysteine, reference compound]
IC50 (PRMT6 [5]): 0.408 µM
